Measured values: the METLIN SMRT retention time set (Domingo-Almenara et al. 2019)

experiment: gradient 5% acetonitrile 3 min, to 50% in 2 min, to 85% in 15 min, held 3 min, 100 µL/min; details: column: Zorbax Extend-C18 2.1 x 50 mm; eluents: water / acetonitrile, 0.1% formic acid
Outline: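 In both positive and negative ionization mode, a quadrupole time-of-flight mass spectrometer coupled to HPLC analyzed pure standards run in mixtures of ~100 molecules. The Zorbax Extend-C18 column (2.1 × 50 mm, 1.8 μm) was operated at 100 μL/min with water and acetonitrile, each containing 0.1% formic acid. The dead volume was 40 μL and the dwell volume 900 μL. Retention time came from adduct peaks that were computationally picked and individually inspected by hand.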

RP-LC retention time | SMILES
627 s | O=C(O)C1CN(CCCP(=O)(O)O)CCN1 (stereo unspecified)
615 s | O=C(Cn1c(C2CCCO2)nc2ccccc21)NCc1cccs1 (stereo unspecified)
759 s | CCCCN(C)C(=O)c1ccc2c(c1)N(CCC)C(=O)C1CCC(=O)N21 (stereo unspecified)
981 s | CCOC(=O)c1cc2ccsc2n1CC(=O)NCc1ccc(C)cc1
619 s | CCOC(=O)c1c(C)[nH]c(C(=O)N2CCC(CC(=O)N3CCN(c4ccccn4)CC3)CC2)c1C
956 s | Cc1ccc(CNC(=O)N(C)CCc2noc(COc3cccc(C)c3)n2)cc1
1120 s | COC(=O)c1ccc(Cl)cc1NC(=O)N1CCCn2nc(-c3cccs3)cc2C1
642 s | COC(=O)Nc1nc2ccc(Br)cc2[nH]1
598 s | Cc1ccc2c(Nc3cccc(C#N)c3)c(C(=O)N3CCCCC3)cnc2n1
669 s | CSc1ccc(CC(=O)Nc2nnc(-c3cc(C)n(C)n3)o2)cc1
837 s | CN(CC(=O)N1CCN(c2ccc(Cl)cc2)CC1)S(=O)(=O)c1c[nH]c(C(=O)N2CCCC2)c1
521 s | Cc1nn(C)c(C)c1CCCN(C)C(=O)CCc1ccnc(N2CCOCC2)c1
913 s | Cc1ccc(NC(=O)/C=C/c2ccccc2)c(C)c1
1220 s | Cc1csc(-c2cc(S(=O)(=O)N3c4ccccc4CC3C)c(C)s2)n1 (stereo unspecified)
662 s | CCn1ncc(CN2CC(c3nc(CCOCc4ccccc4)no3)C2)c1C
594 s | CN1CCN(C(=O)c2nnc(-c3ccc(S(=O)(=O)N4CCCC4)cc3)o2)CC1
619 s | O=C(NCc1cccnc1)c1ccc2c(c1)N(CC(=O)N1CCCC1)C(=O)CO2
725 s | CC(C)NC(=O)C1COC2(CCN(C(=O)c3cccc(Cl)c3)CC2)N1C(=O)c1ccccc1 (stereo unspecified)
672 s | CCn1cc(CCNC(=O)Nc2ccc3c(c2)OCO3)c2cccnc21
663 s | Cc1cc2ccccc2n2c(SCC(=O)NCc3ccco3)nnc12
1140 s | CCOc1ccc(-n2c(=O)c3sccc3n(Cc3nc(-c4ccc(F)c(Cl)c4)no3)c2=O)cc1
969 s | O=C(Nc1ccc(F)cc1F)c1ccc(Br)cc1F
1140 s | CC(C)CC(=O)Nc1nc(-c2ccc3ccccc3c2)cs1

RP-LC retention time | SMILES
851 s | CCCC(=O)N1CCN(c2ccc(=O)n(-c3ccc(C(C)C)cc3)n2)CC1
735 s | Cc1csc(NC(=O)Cn2nc3c(cc2=O)CCCCC3)n1
848 s | CC(=O)c1cccc(NC(=O)c2cc(Cl)ccc2Cl)c1
783 s | CCC(C)(C)C(=O)N1CCCC(c2nc(CCNC(=O)C(C)C)cs2)C1 (stereo unspecified)
584 s | O=C(NCc1ccccc1F)c1ccc2c(c1)CN(C1CCSCC1)CCO2
742 s | CCN1CCN(c2ccc(NC(=O)c3cccc(C)c3)cn2)C1=O
704 s | CN(C)C(=O)c1ccc2c(c1)N(CC(=O)Nc1ccc(F)cc1)C(=O)CS2
634 s | Cc1cc(C)cc(NC(=O)CN2C(=O)CSc3ccc(C(=O)N4CCCC4)cc32)c1
848 s | O=S(=O)(c1cccn2c(SCc3ccc(Cl)cc3)nnc12)N1CCCC1
931 s | Cc1ccccc1-n1ccn(Cc2nc(-c3cccc(Br)c3)no2)c(=O)c1=O
821 s | COc1ccc(-c2csc(Nc3cccc(C)n3)n2)cc1
1250 s | Cc1cc(F)ccc1NC(=O)c1c(O)c2cccnc2n(-c2cccc(F)c2)c1=O
965 s | COc1ccc(C(=O)N2CCc3cc(-c4csc(C)n4)ccc32)c(OC)c1
1110 s | COc1ccccc1N1CCN(c2cc(SCC(=O)Nc3ccccc3Cl)ncn2)CC1
1080 s | COc1cccc(-c2cc3c(=O)n(Cc4nc(-c5cccc(Br)c5)no4)ccn3n2)c1
821 s | COC(=O)C(C)NC(=O)NCc1cccn1Cc1ccccc1C (stereo unspecified)
677 s | O=C(COc1ccc(F)cc1)NCC1CCOCC1
588 s | CC1CCc2[nH]nc(C(=O)N3CCN(C(C)C)CC3)c2C1 (stereo unspecified)
1090 s | CCc1ccc(-c2noc(Cn3c(=O)n(-c4ccc(F)cc4)c(=O)c4sccc43)n2)cc1
1220 s | O=C(CC1CCCC1)Nc1nc(-c2cccc3ccccc23)cs1
703 s | O=S(=O)(c1cccc(Cl)c1)N1CCN(c2cnn3cnnc3c2)CC1
773 s | O=c1c(=O)n(-c2ccccc2)ccn1Cc1nc(-c2ccc3c(c2)OCO3)no1
923 s | CC(=O)Nc1ccc(-c2noc(C3CCCN(C(=O)CCC4CCCC4)C3)n2)cc1 (stereo unspecified)

RP-LC retention time | SMILES
991 s | Cc1ccccc1NC(=O)C1C(=O)N(C)C2(C)CC1c1ccccc1O2 (stereo unspecified)
991 s | COc1ccc(OC)c(NC(=O)c2cnn(-c3ccc(Cl)cc3)c2)c1
978 s | Cc1oc(C2CCC2)nc1C(=O)NCc1ccc2c(c1)OCO2
858 s | CCOCCCNC(=O)C1CCN(C2=NS(=O)(=O)C(c3ccc(C(C)C)cc3)=C2C)CC1
717 s | Cc1ccc(CS(=O)(=O)N2CCC(CN3CCCC(C)C3)CC2)cc1C (stereo unspecified)
622 s | COc1ccc(C2(C(=O)N3CCCC(CO)CCNC(=O)CC3)CC2)cc1 (stereo unspecified)
877 s | CCC(C)Sc1nnc(NC(=O)C2CCN(C(=O)c3cccc(F)c3)CC2)s1 (stereo unspecified)
884 s | CCCn1ccc2sc(C)c(C(=O)NC3CCCCC3)c2c1=O
968 s | Cc1ccc(-c2nc(-c3ccc4nnn(C)c4c3)no2)cc1
812 s | CCCN1C(=O)C2CCC(=O)N2c2ccc(C(=O)NC(C)(C)CC)cc21 (stereo unspecified)
660 s | COc1ccc(NC(=O)N2CCN(c3cc(-c4ccc(OC)c(OC)c4)ncn3)CC2)c(OC)c1
643 s | CCOC(=O)N1CCN(C(=O)Cn2c(-c3ccccn3)nc3ccccc32)CC1
811 s | CCC(=O)Nc1ccc(SCc2nnc(-c3ccccc3)o2)cc1
634 s | CC1CCN(CCNC(=O)c2nnc(-c3ccc(S(=O)(=O)N4CCCC4)cc3)o2)CC1
816 s | Cc1cc(C)cc(N2C(=O)N(CC(=O)N3CCC(C)CC3)C3CS(=O)(=O)CC32)c1 (stereo unspecified)
733 s | CCC(Oc1ccc(=O)n(-c2ccc(F)cc2)n1)C(=O)NCc1ccco1 (stereo unspecified)
806 s | CCn1ccc2sc(C)c(C(=O)NCCC(C)C)c2c1=O
728 s | O=C(Nc1cc(F)ccc1F)C1CCN(C(=O)c2cccn2-c2cccnc2)CC1
1050 s | Cc1nc(-c2cc(S(=O)(=O)Nc3cccc(Br)c3)c(C)s2)cs1
647 s | O=C(NCCN1CCOCC1)c1nnc(-c2ccc(S(=O)(=O)N3CCCCC3)cc2)o1
1320 s | CCCN1C(=O)COc2ccc(-c3noc(-c4ccc(OCC)cc4)n3)cc21
622 s | Cn1c(=O)c(C(=O)N2CCN(c3ccccn3)CC2)nn(-c2ccc(F)cc2)c1=O
1300 s | O=C(CCCOc1ccc(Cl)cc1Cl)Nc1nc(-c2ccc(Cl)cc2)cs1

RP-LC retention time | SMILES
644 s | O=C(CC1CCN(C(=O)c2cc3cc(Cl)ccc3[nH]2)CC1)NCCCN1CCCC1
882 s | O=C(Cn1cccc1-c1nnc(-c2ccccc2)o1)NCc1ccccc1
765 s | Cc1ccc(CN2CCN(C3CCN(C(=O)Nc4ccc5c(c4)OCCO5)CC3)C2=O)cc1
732 s | COc1cccc(CNC(=O)C2(C)CCN(C(=O)Nc3cc(OC)c(OC)c(OC)c3)CC2)c1
794 s | COC(=O)C(C)NC(=O)NCc1cccn1Cc1ccccc1 (stereo unspecified)
612 s | Cc1cccc(-c2nn3c(c2-c2ccnc4ccc(C(N)=O)cc24)CCC3)n1
687 s | O=C(NCc1ccc(F)cc1)N1CCCN(c2nc3cccnc3s2)CC1
736 s | CSc1cccc(NC(=O)C2CCN(S(=O)(=O)c3cn(C)cn3)CC2)c1
725 s | CCOC(=O)Cn1c(C2CC(=O)N(c3cc(OC)ccc3OC)C2)nc2ccccc21 (stereo unspecified)
870 s | O=C(CCSc1ccccc1)N1CCN(CC(F)(F)F)CC1
566 s | Cc1nc2ccc(C(=O)NC3CCN(C)CC3)cc2nc1C
646 s | O=C(Cn1c(=O)c(=O)n(Cc2ccncc2)c2ncccc21)NC1CCCCCCC1
577 s | CN(C)c1ccc(CCNC(=O)C(=O)NCc2ccc3c(c2)OCO3)cc1
709 s | O=C(CCc1nc(-c2cccnc2)no1)NCCc1c[nH]c2ccccc12
1150 s | Cc1cccc(-c2nsc(SCC(=O)N3CCc4ccccc43)n2)c1
904 s | CSc1ccc(CNC(=O)CN2CCc3[nH]c4c(C)cc(C)cc4c(=O)c3C2)cc1
887 s | Cc1cccc2c(=O)n(C)c(CCC(=O)NCc3ccc(Br)cc3)nc12
813 s | Cc1cccc(NC(=O)N2c3ccccc3NC3=C(C(=O)CCC3)C2c2ccco2)c1C (stereo unspecified)
1030 s | COc1ccc(CNC(=O)C2(C)CCN(S(=O)(=O)c3cccc(Cl)c3C)CC2)cc1
691 s | COC(=O)c1ncn2c1C(=O)N(c1ccc(F)cc1)C(C)(C(=O)NCc1ccccc1)C2 (stereo unspecified)
1320 s | Cc1csc(-c2cc(S(=O)(=O)N(Cc3cccs3)C3CCCC3)c(C)s2)n1

SMILES | RP-LC retention time
CC1CCC[C@H](O)CCCCCc2cc(O)cc(O)c2C(=O)O1 (stereo partly specified) | 862 s
